Reference: PubChem BioAssay AID1159557 (GlaxoSmithKline (GSK), 2015)
Calls of active or inactive are those of the source. The rule behind the calls is not given here.

System: Trypanosoma brucei growth inhibition
Assay: T. brucei growth inhibition (AID 1159557);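 note: parasites exposed to compound for 48 h before the resazurin readout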

| IC50 | Compound |
| --- | --- |
| > 40 µM (inactive) | COc1ccc(C(=O)N2CCC(Nc3cccnc3)C2)c(OC)n1 (stereo not drawn) |
| 0.63 µM | CCCCn1c(=O)c2c(N)onc2n(CCCC)c1=O |
| 7.9 µM | O=C(CCCNC(=O)c1ccc(Cl)cc1)Nc1nc(-c2ccccn2)cs1 |
| 5 µM | CCS(=O)(=O)Nc1ccc(C2=NN(C(=O)c3cccs3)C(c3ccccc3OC)C2)cc1 (stereo not drawn) |
| 7.9 µM | CN(C)CCN(C)Cc1ccc(Cl)cc1NS(=O)(=O)c1ccc(Cl)c(Cl)c1 |
| 0.25 µM | CNC(=O)C1Cc2ccccc2N1C(=O)Cc1ccc(F)cc1 (stereo not drawn) |
| 0.25 µM | Cc1ccc(NC(=O)c2ccc([N+](=O)[O-])s2)cc1S(=O)(=O)N1CCOCC1 |
| 0.63 µM | Cc1cc2nc(CN(C)Cc3ncccc3C)[nH]c2cc1C |
| 7.9 µM | COc1ccc(CNc2nsc3ccccc23)cc1OC |
| 16 µM | O=C(Nc1nc2ccccc2[nH]1)c1c(O)c2cccc3c2n(c1=O)CC3 |
| 20 µM | O=C(CN(Cc1ccccn1)Cc1ccccn1)NCc1csc(-c2cccs2)n1 |
| 20 µM | O=C(CN(Cc1ccccn1)Cc1ccccn1)NC1Cc2ccccc2C1 |
| 20 µM | C=CCn1nc([N+](=O)[O-])nc1Oc1ccc(Cl)cc1Cl |
| 5 µM | CC(C)Nc1nc(Cl)nc2ccccc12 |
| 1 µM | COc1cccc(S(=O)(=O)Nc2ccc3c(c2)CC(N2CCC(NC(=O)C4CC4)CC2)C3)c1 (stereo not drawn) |
| 0.2 µM | CC(C)CC(=O)Nc1cc(C2CC2)nn1-c1nc2c(c(=O)[nH]1)CCCC2 |
| 2.5 µM | CCN(Cc1nc2ccc(C(=O)N3CCN(c4ncccn4)CC3)cc2[nH]1)C1CCCc2cccnc21 (stereo not drawn) |
| > 40 µM (inactive) | Cc1nccn1C1CCCN(C(=O)c2cc3c(F)cccc3s2)C1 (stereo not drawn) |
| 0.32 µM | Cc1ccccc1NS(=O)(=O)c1ccc2[nH]cc(C(=O)NC3CCCC(C)C3C)c(=O)c2c1 (stereo not drawn) |

| IC50 | Compound |
| --- | --- |
| 20 µM | CNc1cc(C)nc(C2CN(C(=O)c3n[nH]c4ccccc34)CCO2)c1 (stereo not drawn) |
| 0.1 µM | CCN(CC)c1ncc(C(=O)c2ccc([N+](=O)[O-])o2)s1 |
| 32 µM | Cc1ccc(S(=O)(=O)Cn2nnnc2C(c2cccnc2)N2CCN(c3ccccc3)CC2)cc1 (stereo not drawn) |
| 13 µM | Cc1cc(C)n(-c2nc(NC(C)(C)C)nc(N3CCOCC3)n2)n1 |
| 0.1 µM | O=c1[nH]c(NCCCNCc2cc(Br)cc(Br)c2)nc2ccsc12 |
| 0.25 µM | O=C(NCCc1ccn(-c2ccccc2)n1)C1CCCCC1 |
| 0.5 µM | COc1cc(Cl)c(C)cc1NC(=O)c1ccc([N+](=O)[O-])s1 |
| 25 µM | CCNc1cc(-c2ccccn2)nc(Nc2ccccc2)n1 |
| 6.3 µM | O=C(COc1ncnc2cc([N+](=O)[O-])ccc12)NC(=O)NC1CCCCC1 |
| 0.79 µM | COc1ccc2ncc(F)c(NC(=O)C3(O)CCC(NCc4ccc5c(c4)OCCO5)CC3)c2n1 (stereo not drawn) |
| 0.1 µM | CC(C)C[C@H](NC(=O)c1ccc(-c2ccccc2)o1)C(=O)NC1(C#N)CC1 |
| 0.013 µM | Cc1cc(Nc2cc(C3CC3)[nH]n2)nc(N2CCC[C@H]2C(N)=O)n1 |
| 16 µM | Cc1ccc(NC(=O)C(C)n2nc([N+](=O)[O-])c(Br)c2C)cc1Cl (stereo not drawn) |
| 16 µM | c1ccc(Nc2nc3ccccc3[nH]2)nc1 |
| > 40 µM (inactive) | CC1=NN(C(=O)CCn2cnc([N+](=O)[O-])n2)C(O)(C(F)(F)F)C1 (stereo not drawn) |
| 10 µM | Cc1nn(C2CCS(=O)(=O)C2)c(C)c1CN(C)C(=O)C=Cc1sc2ccccc2c1Cl (stereo not drawn) |
| 25 µM | Cc1ccc2sc(NC(=O)Cn3cnc([N+](=O)[O-])n3)nc2c1 |
| 20 µM | CC(=O)Nc1ccc(-c2noc(CC3CCCN(Cc4cccc(F)c4C)C3)n2)cc1 (stereo not drawn) |
| 2 µM | COc1ccc(-c2ccc3nnc(-c4ccc(O)c(OC)c4)n3c2)cn1 |

Further lines, the compound ahead of its results:

| Compound | IC50 |
| --- | --- |
| CS(=O)(=O)NC1CCC(Nc2ncc(Br)c(Nc3ccccc3C(N)=O)n2)CC1 (stereo not drawn) | 0.16 µM |
| O=C(CN(Cc1ccccn1)Cc1ccccn1)NCc1ccc(-c2csnn2)cc1 | 13 µM |
| CNS(=O)(=O)c1ccccc1Nc1nc(Nc2ccnn2C)ncc1Cl | 0.063 µM |
| CCc1ccc2nc(NC(=O)c3cc(N4CCOCC4)ccn3)sc2c1 | 0.5 µM |
| CCc1nn(-c2ncc(F)c(NC(C)C)n2)c(N)c1C1CCCCC1 | 10 µM |
| CS(=O)(=O)c1ccc(Nc2nccc(Nc3n[nH]c4ccc(F)cc34)n2)c(F)c1 | 0.5 µM |
| CCCCCNC(=O)c1c[nH]c2ccc(S(=O)(=O)N(C)c3ccc(OCC)cc3)cc2c1=O | 0.32 µM |
| O=C1OCc2ccc(Nc3nccc(-c4cnn5ncccc45)n3)cc21 | 0.004 µM |
| COc1cc(NC(=O)Nc2cccc(CNC(=O)OC3CCCCC3)c2)ccc1-c1cnco1 | 0.25 µM |
| CN(C)Cc1ccc(N2CCC(NS(=O)(=O)c3ccc(Cl)cc3)CC2)cc1 | 25 µM |
| O=C(CN(Cc1ccccn1)Cc1ccccn1)NCc1ccc2c(c1)OCO2 | 6.3 µM |
| O=C(Nc1cccc(F)c1)N1CCC(Oc2cccc(-c3cccnc3)c2)CC1 | 25 µM |
| N#Cc1cccc(CN2CCC(N(Cc3cccnc3)C(=O)c3cc(F)c(F)cc3F)CC2)c1 | > 40 µM (inactive) |
| Cc1ccc2onc(Nc3ccnc(Nc4cccc(S(C)(=O)=O)c4)n3)c2c1 | 6.3 µM |
| COC(=O)c1ccc(-c2cnc3ccc(NCc4ccccn4)nn23)cc1 | 0.63 µM |
| Cc1ccc(NC(=O)c2ccnc(N3CCCC3)c2)cc1-c1cc(C(N)=O)ccc1C | 0.1 µM |
| CS(=O)(=O)c1cccc(-c2cnc(N)c3c(-c4ccc(CO)cc4)csc23)c1 | 2 µM |
| COCCn1c(-c2ccc3c(c2)OCO3)cnc1NCc1ccccc1OC | 20 µM |
| N#Cc1cccc(Nc2nccc(N3CCC(NS(=O)(=O)c4cccc(C#N)c4)CC3)n2)c1 | 6.3 µM |
| O=S(=O)(NCC(c1cccnc1)N1CCN(c2ccccc2F)CC1)c1ccc(F)cc1 (stereo not drawn) | 25 µM |
| COc1ccc(OC)c2c(=O)c(Cc3ccccc3)c(C)[nH]c12 | > 40 µM (inactive) |
| O=C(NCCc1ccccn1)C(c1cn[nH]c1)N1CCN(c2ccc(Cl)c(Cl)c2)CC1 (stereo not drawn) | 13 µM |
| O=C(NCC(c1cccnc1)N1CCc2ccccc2C1)C(=O)Nc1cccc(Cl)c1 (stereo not drawn) | 16 µM |
| Cc1cc(C#N)c([N+](=O)[O-])cc1Br | 0.79 µM |

| Compound | IC50 |
| --- | --- |
| Cc1nc2c(-c3ncn[nH]3)cc(NC(=O)Cc3ccccc3)cn2c1C | 3.2 µM |
| CNC(=O)Oc1ccc(C(=O)NCc2ccccc2)cc1OC(=O)NC | 0.13 µM |
| CC(=O)Nc1nc(-c2cc(C)ccc2C)c(C)s1 | > 40 µM (inactive) |
| COc1ccc(C2CC(c3ccccc3Cl)=NN2C(=O)CNC(=O)C2CCCC2)cc1 (stereo not drawn) | 0.63 µM |
| Cc1cnc(Nc2cc(Cc3ccccc3)nc(NC3CCC(O)CC3)n2)s1 (stereo not drawn) | 0.025 µM |
| c1ccc2sc(Nc3nc4ncccc4[nH]3)nc2c1 | 1 µM |
| COc1ccc(NS(=O)(=O)c2cccc(NC(=O)c3cc(F)cc(F)c3)c2)cc1 | 0.63 µM |
| CN(Cc1ccc(F)cc1)c1ccc(OCC(=O)N2CCCCC2c2cccnc2)nn1 (stereo not drawn) | > 40 µM (inactive) |
| Cc1cn[nH]c1C1CCCN(Cc2nc3ccccc3n2C)C1 (stereo not drawn) | 6.3 µM |
| COc1ccc(S(=O)(=O)Nc2ccc(CN3CCN(C(=O)c4cccc(C#N)c4)CC3)cc2)cc1 | 0.4 µM |
| O=C1NCc2cccc(Nc3nc(NC4CCC(O)CC4)ncc3Br)c21 (stereo not drawn) | 0.063 µM |
| COc1ccc(S(=O)(=O)NC(C)C)cc1Nc1ncc(-c2cccc(F)c2)cn1 | 20 µM |
| N#Cc1cccc(CNc2ccc(-c3cnn(CC4CC4)c(=O)c3C#N)cc2)c1 | 10 µM |
| Cc1cccnc1NC(=O)c1cccc(OCc2c(C)noc2C)c1 | 0.4 µM |
| COc1ccc(-c2csc(NC(=O)c3ccc([N+](=O)[O-])s3)n2)cc1OC | 0.13 µM |
| COc1cc(C2SCC(=O)Nc3c2c(C)nn3-c2nc3ccccc3s2)cc(OC)c1O (stereo not drawn) | 6.3 µM |
| CC(Cn1ccnc1)NC(=O)COc1ccc(Cl)c(Cl)c1 (stereo not drawn) | > 40 µM (inactive) |
| COc1ccc2ncc(F)c(CCN3CC[C@@H](NC(=O)c4cc5c(s4)CCC5)[C@@H](O)C3)c2n1 | 0.1 µM |
| Cc1[nH]c2ccccc2c(=O)c1Cc1c(C)[nH]c2ccccc2c1=O | > 40 µM (inactive) |
| O=c1[nH]ccc2ccc(-c3ccncc3)cc12 | 32 µM |
| Cc1cc(N(C)C)nc2ccc(Cc3cnc(N)nc3N)cc12 | 5 µM |
| Cc1cc(Nc2ccc(C#N)c(Cl)c2C)n[nH]1 | 0.0079 µM |
| O=C(NCc1ccncc1)c1ccccc1N1CCCN(C(=O)Cc2ccc(F)c(F)c2)CC1 | 6.3 µM |
| COc1ccc(Nc2nc(-c3ccccn3)cs2)c(OC)c1 | 20 µM |

| Compound | IC50 |
| --- | --- |
| COCc1cc(Nc2ccccc2)nc(-c2ccccn2)n1 | > 40 µM (inactive) |
| O=C(c1ccc(Cl)cc1)c1ccc(OC(=O)N2CCOCC2)cc1 | 7.9 µM |
| O=C(NCCNc1noc(-c2ccc([N+](=O)[O-])cc2)n1)c1ccc(Cl)cc1 | 3.2 µM |
| O=c1oc2ccccc2n1C1CCN(Cc2ccccc2-c2cccnc2)CC1 | 40 µM |
| O=C(Nc1nc2cc(Cl)ccc2o1)c1cccc(Cl)c1 | 0.79 µM |
| O=C(c1cccc(Nc2ncc(-c3ccc4c(c3)OCO4)cn2)c1)N1CCOCC1 | 25 µM |
| Cc1ccc(C)c(-n2nnnc2Sc2nc([N+](=O)[O-])nn2C)c1 | 13 µM |
| CCN(CC)c1ccc(S(=O)(=O)N(CC)CC)c2nonc12 | 25 µM |
| O=C(Nc1nc(-c2ccccn2)cs1)N1C[C@H]2C[C@@]2(c2ccccc2)C1 | 0.5 µM |
| COc1ccc(NS(=O)(=O)c2cc(NC(=O)c3ccc([N+](=O)[O-])s3)ccc2OC)cc1 | 0.05 µM |
| O=C(NC(c1ccc(Cl)cc1)c1cnccn1)C1CCN(C(=O)Nc2cccc(C(F)(F)F)c2)CC1 (stereo not drawn) | 13 µM |
| CCCc1nc2nc(N)nc(N)c2cc1CC | 20 µM |
| O=C(Cn1cnc2cc([N+](=O)[O-])ccc2c1=O)NCCc1ccc(Cl)cc1Cl | 13 µM |
| CCN(C)Cc1ccc(N2CCC(NS(=O)(=O)c3ccc4c(c3)CCO4)CC2)nc1 | > 40 µM (inactive) |
| CC(=O)NCCNc1cc(-c2ccnc(Nc3cccc(Cl)c3)n2)ccn1 | 0.2 µM |
| c1cc(-c2ncc(-c3ccn[nH]3)s2)ccn1 | 20 µM |
| O=C(N[C@H](CO)c1ccccc1)c1ccc(-c2c[nH]c3nccc(C(F)(F)F)c23)s1 | 0.16 µM |
| Cc1cccc(NS(=O)(=O)c2ccc3c(c2)C(=O)c2cc(S(=O)(=O)Nc4cccc(C)c4C)ccc2-3)c1C | 7.9 µM |
| COc1ccc(CN(C)Cc2ccncc2)cc1-c1ccc(S(=O)(=O)NC2CCC2)s1 | > 40 µM (inactive) |
| Cc1ccc2ccc(C(Nc3ccccn3)c3cccnc3)c(O)c2n1 (stereo not drawn) | 5 µM |
| CC(C)Nc1nccc(-c2c(-c3ccc(F)cc3)ncn2C2CCOCC2)n1 | 5 µM |
| CCOc1ccc(CC(=O)N2c3ccccc3CC2C(=O)NC)cc1 (stereo not drawn) | 0.5 µM |
